How the values were obtained:
S. aureus ATCC29213 = assay: Human serum binding effect: MIC with and without human serum; format: cell-based, Staphylococcus aureus; conditions: 1:1 human serum:MHB
Procedure: The approximate measurement of the degree of binding of the compound to human serum proteins can be achieved by determination of the effect of the addition of human serum to the medium in which the MIC values against a selected bacterial strain is determined. The ratio of the MIC value obtained in presence of added human serum to the MIC value determined without serum addition was used as a measure of serum binding and the results of such determination are presented below in Table 2.
In addition to the standard MIC determination described above, the staphylococcal strain ATCC29213 is also tested in a ratio 1:1, human serum:MHB to obtain a preliminary estimate of the bioactivity of test compounds in serum: The assay was performed in Human Serum and Mueller-Hinton Broth (HSMHB) with a final bacterial inoculum of 1×10^6 CFU/mL (from an early-log phase culture) and a final volume of 100 μL. Control drugs, including imipenem, vancomycin, dicloxacillin, and new compounds were prepared in double-concentrated Mueller-Hinton broth at a concentration equivalent to 4-fold the desired final concentration. Dilution of compounds were prepared directly in the plates by serial 2-fold dilution in double-concentrated Mueller-Hinton using a multichannel pipette. Positive and negative growth controls were included in each plate. […] The inoculum was prepared by diluting the early log-phase (1 h) culture 1:100 with fresh double-concentrated Mueller-Hinton broth. A volume of 25 μL of the inoculum was added to each well. […] The exact inoculum was determined by applying 10 μl of 10-fold serial dilution of the bacterial suspension on TSA. After overnight incubation at 35° C., colony forming units were manually counted.

[1] = system: S. aureus ATCC 13709 (Smith diffuse); assay: Murine lethal bacteremic peritonitis (septicemia) efficacy; format: in vivo, mice
Procedure: 10 mice/group were injected intraperitoneally with 2.98×10^7 cfu S. aureus ATCC 13709 (Smith diffuse) and treated at 0 and 2 hrs post-challenge with serial two-fold doses of new cephalosporin antibiotic, imipenem and vancomycin subcutaneously in order to determine the ED50. Male Swiss-Webster mice weighing originally 24.2-26.1 g were obtained from Charles Rivers Labs, Hollister, Calif. Mice were housed 10 per cage and given free access to water and mouse chow.
Staphylococcus aureus ATCC 13709 (Smith diffuse) was grown overnight at 37° C. in Brain-heart Infusion broth (BHIB). The following morning, it was subcultured to fresh BHIB and incubated for 4-5 h at 37° C. The log-phase growth cells were washed once with physiological saline and adjusted to the desired concentration by correlation of absorbency at OD 600 nm with predetermined plate counts (NCCLS, 1994). The cell suspension was mixed with an equal volume of sterile 14% hog-gastric mucin (2). Inoculum was kept in an ice bath until used (<1 h).
Mice were challenged via an injection of 0.5 mL bacterial suspension intraperitoneally. The bacterial challenge was 2.98×10^7 cfu/mouse.
Imipenem (Primaxin IV; Lot 7294A), vancomycin (Vancocin; Lot 8MU60W), and new cephalosporin antibiotic were prepared by serial two-fold dilutions to concentrations of 0.078-0.005 mg/mL, 1.2-0.075 mg/mL, 0.3-0.02 mg/mL, 0.3-0.02 mg/mL and 0.3-0.02 mg/mL respectively in sterile water (1). All antibiotics were administered subcutaneously in 0.1 mL volumes at 0 and 2 hours post-challenge. Concentrations of all compounds are based on the weight of the bioactive ingredients.
The 50% effective dose (ED50) was calculated by the probit method (3) utilizing a program entitled Probit (Nycomed-Salutar).

human serum proteins = assay: Serum binding determination by ultrafiltration/HPLC; format: in vitro ADME; conditions: by HPLC
Procedure: (§1) The more accurate measurement of binding of selected cephalosporin compounds was performed using HPLC as described below.
(§2) 1. Serum is placed in a shaking water bath preheated to 37±2° C. for 5 to 10 minutes to heat serum to 37° C. Serum pH is measured and recorded, while serum is 37° C. using pH paper. Measurements are taken twice, 3 minutes apart. If the pH is not 7.4±0.4 then the pH is adjusted by blowing 5% CO2/95% O2 over the serum. After blowing for several minutes, serum is heated to 37° C. and measurements are taken twice, 3 minutes apart using pH paper to determine the pH. Store at 4° C. The serum is stable for 7 days. Always check the pH before each use.
(§3) 2. Before any centrifugation, the centrifuge temperature must be adjusted to 25±2° C. Preheat the centrifuge by spinning for 45 minutes at the same speed to be used in the assay (1900 g) with two tubes of water in the rotor and the temperature set to 25° C. When the centrifuge stops immediately check the temperature of the tubes of water with a calibrated thermometer. The temperature of the tubes of water must be 25±2° C. […] Continue spinning and measuring the temperature and adjusting the setting until the temperature is 25±2° C.
(§4) 3. Prepare blank ultrafiltrate by pipetting blank pH 7.4 serum into an Amicon Centrifree Micropartition devices, centrifuge: fixed angle rotor, 1900 g, 25° C. for 20 minutes. Heat ultrafiltrate in a shaking water bath preheated to 37° C. Measure ultrafiltrate pH and adjust to the pH of the serum (7.4±0.2).
(§5) 4. Pipette 190 ul of blank ultrafiltrate into a set of labeled 1.7 mL polypropylene microfuge tubes for 3 of each level. Pipette 10 μL of the appropriate standard stock 50, 200, 1000 μg/mL to make standards 2.5, 10, and 50 μg/mL respectively. Vortex each tube well. One set of the standard samples are mixed 1:1 with 0.2 M acetic acid and injected onto the HPLC (MSTD). These samples are the membrane standards and will be used to compare to the other standards. Pipette 190 ul of ultrafiltrate and spike with 10 ul of whatever solution (e.g. water) the standards are prepared in to make the zero standard.
(§6) 5. Pipette 475 μL of blank heated pH 7.4 serum into a set of labeled 1.7 mL polypropylene microfuge tubes for 2 of each (Serum A and Serum B). Pipette 25 μL of the 1000 μg/mL standard stock into each tube, vortex each tube well to make serum standard 50 μg/mL. Remove 100 μL of serum and deproteinate with 200 μL 4% TCA while vortexing to make serum time 0 (serum 50, T0). Place serum tubes in a shaking water bath at 37° C. for 10 minutes. Pipet 100 μL of serum out and deproteinate with 200 μL 4% TCA, to make serum time 10 min (serum 50, T10). Pipet 200 ul serum standard 50 μg/mL into an ultrafiltration device, which is not treated with TCA, to determine free drug in samples (Rat Serum 50).
(§7) 6. Transfer serum and standard samples to labeled Amicon Centrifree Micropartition filters, and centrifuge: 1900 g, 25° C. for 10 minutes. The extracted serum samples (T0 and T10) are spun down and supernatant is loaded into HPLC vials.
(§8) 7. 100 μL of ultrafiltrate sample and 100 μL of 0.2 M acetic acid were mixed together to stabilize the compound in ultrafiltrate.
(§9) 8. Transfer entire stabilized ultrafiltrate solution to a labeled autoinjector HPLC vial cap with Teflon septa, and inject on HPLC.
(§10) Peak height or area is used in a weighted linear regression.

[2] = In vitro stability of compounds in rat serum; format: in vitro ADME
Procedure: In general, compounds from the class of 7-acylamino-3-heteroarylthio-3-cephem carboxylic acids have higher chemical reactivity and lower stability towards chemical or enzymatic decomposition than most typical cephalosporins. […] Results shown in Table 2 represent percentage loss of the initial amount of cephalosporin compound upon 60 min incubation in rat serum.
Procedure for measuring degree of degradation of cephalosporin compounds in rat serum was as follows:
Fresh control rat serum (heparinized and stored frozen) is preincubated at 37° C. for 15 min in a shaking water bath. pH is measured using test strips. 25 μL of a 2 mg/mL solution cephalosporin compound (in water) of is then added to each matrix to make 1000 μL. Solutions were incubated at 37° C. 100 ul of solution was taken out at time=0, 15, 30, and 60 min post dose and added 200 μL 4% trichloroacetic acid, vortexed, and centrifuged for 10 min at 14,000 rpm in an Eppendorf microcentrifuge. 25 μL of each supernatant was injected onto HPLC. Experiment was repeated using 25 μL of a 0.2 mg/mL cephalosporin compound. Degradation is measured as the percentage of HPLC peak area at time t relative to peak area at time 0.
HPLC conditions: Beckman Ultrasphere C18 column. 5 u. 4.6 mm×25 cm. 1 mL/min of 95% 0.1 M ammonium acetate, pH 6, 5% ACN going to 75% buffer/organic over 20 min. UV monitored at 254 and 280 nm.

rhesus serum proteins = assay: Serum binding determination by ultrafiltration/HPLC; format: in vitro ADME; conditions: by HPLC
Procedure: as §1, §2, §3, §4, §5, §6, §7, §8, §9, §10

rat serum proteins = assay: as above; format: in vitro ADME; conditions: by HPLC
Procedure: as §1, §2, §3, §4, §5, §6, §7, §8, §9, §10

[3] = Staphylococcus aureus, ATCC13709, sc, read-out: Efficacy in murine septicemia % survival

Compound: CN[C@H](CC(C)C)C(=O)N[C@H]1C(=O)N[C@@H](CC(N)=O)C(=O)N[C@H]2C(=O)N[C@H]3C(=O)N[C@H](C(=O)N[C@H](C(=O)O)c4cc(O)cc(O)c4-c4cc3ccc4O)[C@H](O)c3ccc(c(Cl)c3)Oc3cc2cc(c3O[C@@H]2O[C@H](CO)[C@@H](O)[C@H](O)[C@H]2O[C@H]2C[C@](C)(N)[C@H](O)[C@H](C)O2)Oc2ccc(cc2Cl)[C@H]1O [Van., Vancomycin, reference compound]
- Human serum binding effect (ratio of MIC value determined with and without human serum added) (S. aureus ATCC29213): 2
- responders at 0.625 mg/kg [1, 3]: 10%
- responders at 1.25 mg/kg [1, 3]: 20%
- responders at 2.5 mg/kg [1, 3]: 60%
- Efficacy in murine septicemia % survival ([1]; dose 5 mg/kg s.c. at 0 and 2 h post-challenge): 5/100%
- Serum Binding human (% of compound bound to serum) (human serum proteins): 55%

Compound: N=C(N)NCCSCc1ncccc1SC1=C(C(=O)O)N2C(=O)[C@@H](NC(=O)/C(=N\O)c3nc(N)sc3Cl)[C@H]2SC1 [Cmpd 15, (7R)-7-[(Z)-2-(2-amino-5-chlorothiazol-4-yl)-2-(hydroxyimino)acetamido]-3-[2-(2-guanidinoethylthiomethyl)pyrid-3-ylthio]-3-cephem-4-carboxylic acid]
- Human serum binding effect (ratio of MIC value determined with and without human serum added) (S. aureus ATCC29213): 2
- stability of compounds in rat serum ([2]; Table 2 data): improved stability
- Stability in rat serum (% loss) ([2]; after 60 min exposure to rat serum, 37° C., HPLC): 38%
- Serum Binding rhesus (% of compound bound to serum) (rhesus serum proteins): 88%
- Serum Binding rat (% of compound bound to serum) (rat serum proteins): 76%
- Serum Binding human (% of compound bound to serum) (human serum proteins): 83%

— US6723716B1, “7-acylamino-3-heteroarylthio-3-cephem carboxylic acid antibiotics and prodrugs thereof” (Essential Therapeutics, Inc., priority 1999, dated 2004)
